Measurements taken from patent US4791215A, “Derivatives of glutamic acid and aspartic acid” (priority 1984, dated 1988).
Where “and” joins values, the source holds several entries; their conditions need not be identical. Equal values may be shown once.

Key:
[1] = test system: CCK-8 induced contraction of guinea pig gall bladder; assay: Anti-CCK-8 activity on gall bladders in situ; type: in vivo; conditions: for percentage inhibition of contracting effect of CCK-8: single experiments; for ED50: Cavia porcellus, iv, CCK-8 10 ng/kg i.v., read-out: ED50 (inhibition of 50% of contracting effect of CCK-8)
Protocol: In order to confirm the evidence of the studies in vitro several of the more interesting compounds were tested in vivo on guinea pig gall baldders in situ.
The method used is that described by Ljungberg (Svensk. Farm. Tidskr. 68, 351-354, 1964).
Guinea pigs having a weight of about 400 g, anaesthetised with urethane, were used; the substances under examination were administered intraveneously into the jugular vein.
The responses of the gall bladders to the substances under test were detected by means of a force transducer and recorded by means of a microdynamometer. The optimum contracting dose was chosen as 10 ng/kg of CCK-8. The antagonist compounds tested were administered in increasing doses so as to enable the calculation of an ED50 value, that is in the dose (in mg/kg i.v.) capable of inhibiting 50% of the contracting effect of 10 ng/kg i.v. of CCK-8.
The results obtained are given in Table 7 below, which gives the doses used and the effects obtained expressed as a percentage inhibition of the contracting effect of CCK-8 as well as the ED50 found.

morphine analgesia = assay: Increase in analgesia of morphine, Tail Flick Test (Experiment 1); type: in vivo, rats; conditions: for percentage variation of latency of pain sensation / M (10-90) ± SE, mean percentage variation of latency: compound 10 mg/kg i.p. + morphine 2 mg/kg; for M (10-90) ± SE, mean percentage variation of latency: mean 10-90 min; for Power ratio with respect to morphine alone: rat, in vivo
How it was run: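 Non-fasted male rats (150-200 g); a tail point is exposed to a 75 °C heat source and latency to tail movement recorded, 8 s cut-off. Readings taken before and 10, 20, 30, 45, 60 and 90 min after analgesic treatment; percentage variation calculated per animal.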

[2] = test system: CCK-8 induced contraction of guinea pig gall bladder; assay: Anti-CCK activity on gall bladder strips in vitro; conditions: CCK-8 10 ng/ml
How it was run: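 Longitudinal guinea pig gall bladder strips in Krebs at 32 °C, gassed with O2/CO2 95:5, were contracted with 10 ng/ml CCK-8. Isometric force was recorded across several compound concentrations, and ED50 was taken as the μg/ml concentration antagonising 50% of the CCK contraction.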

[3] = test system: intestinal transit of carbon; assay: Anti-spastic activity, vegetable carbon intestinal transit test; type: in vivo, mice; conditions: Mus musculus, ip; read-out: antispastic activity ED50 (dose reducing intestinal transit of carbon by 50%)
Text: The anti-spastic activity which the present compounds exert on the entire digestive system is also notable. Measured in mice with the vegetable carbon test (rate of transit through the stomach and the intestine), this activity is illustrated in the following table.
claimed administered intraperitoneally in mice. Values
expressed as the ED 50 in mg/kg, that is the dose which
reduces the intestinal transit of carbon by 50%

[4] = test system: endogenous opiates analgesia; assay: Analgesic activity of endogenous opiates released by transcutaneous shock, Tail Flick Test (Experiment 3); type: in vivo, rats
Protocol: Experiment No. 3: Influence of several of the compounds of the invention on the analgesic activities of endogenous opiates released by transcutaneous shock in rats and measured by the Tail Flick Test
The method is that described by Lewis et al. J. Neurosc. 1, 358 […]. Male rats which have not fasted and have a weight of about 200 g are used.
The animals are stressed by the application of a 60 Hz-2.5 mA current to the front leg in pulses of a duration of 1 second every 5 seconds for 20 minutes.
This stress regime induces the release of endogenous opiates.

biliary flow = assay: Biliary flow (choleretic activity); type: in vivo, rat
Protocol: The following experiment was carried out: a cannula was inserted in the bile duct of a rat anaesthetised with urethane, together with a small needle connected to a polythene tube, and the bile liquid was thus collected. The collection was carried out for one hour before the intravenous administration of the tested compounds and for a further two hours after administration, the samples collected at 30 minute intervals being weighed.
In order to prevent possible dehydration of the animals, 0.5 ml of physiological solution was administered at 30 minute intervals up to a total of 3 ml.

Row | Structure (SMILES) | percentage variation of latency of pain sensation (morphine analgesia; 10') | percentage variation of latency of pain sensation (morphine analgesia; 20') | percentage variation of latency of pain sensation (morphine analgesia; 30') | percentage variation of latency of pain sensation (morphine analgesia; 45') | percentage variation of latency of pain sensation (morphine analgesia; 60') | percentage variation of latency of pain sensation (morphine analgesia; 90') | M (10-90) ± SE, mean percentage variation of latency (morphine analgesia) | Power ratio with respect to morphine alone (morphine analgesia) | ED50 (concentration antagonising 50% of contracting effect of CCK-8) [2] | ED50 [3] | further results
1 | CCCN(CCC)C(=O)C(CCC(=O)O)NC(=O)c1cc(C)cc(C)c1 (stereo not shown) [Compound C-31] | 28.9 ± 17% | 43.3 ± 25% | 54.7 ± 22% | 68.0 ± 22% | 57.4 ± 16% | 49.5 ± 19% | 50.4 ± 14% | 1.69 | 22.9 µg/mL |  | percentage inhibition of contracting effect of CCK-8 ([1]; 30 mg/kg i.v.): 82.1% and 92.5% and 58.7%; ED50 [1]: 16.3 mg/kg
2 | CCCCN(CCCC)C(=O)C(CCC(=O)O)NC(=O)c1ccc(I)cc1 (stereo not shown) [Compound C-27] | 52.3 ± 13.0% | 81.4% | 90.2 ± 7.0% | 85.9 ± 10.0% | 60.3 ± 15.0% | 50.3 ± 13.0% | 70.0 ± 17.8% | 2.35 | 10.2 µg/mL | 40.3 mg/kg | 
3 | CCCCCN(CCCCC)C(=O)C(CCC(=O)O)NC(=O)c1ccc(Cl)cc1 (stereo not shown) [Compound C-4] | 44.6 ± 5.3% | 67.5 ± 13.4% | 66.3 ± 14.0% | 60.4 ± 16.3% | 59.8 ± 17.0% | 44.2 ± 14.8% | 57.1% | 1.92 | 1.1 µg/mL | 38.8 mg/kg | percentage inhibition of contracting effect of CCK-8 ([1]; 0.03 mg/kg i.v.): -11.8%; percentage inhibition of contracting effect of CCK-8 ([1]; 1 mg/kg i.v.): -92.1% and -88.5%; ED50 [1]: 0.3 mg/kg
4 | CCCN(CCC)C(=O)C(CCC(=O)O)NC(=O)c1ccc(CC)cc1 (stereo not shown) [Compound C-34] | 19.6 ± 23% | 59 ± 17% | 85.5 ± 10% | 78.4 ± 16% | 67 ± 20% | 59.1% | 60.6 ± 23% | 2.03 | 40.1 µg/mL | 65.5 mg/kg | average latency, Tail Flick ([4]; compound 1 mg/kg iv + stress, 5'): 5.40 ± 0.35 s; average latency, Tail Flick ([4]; compound 1 mg/kg iv + stress, 10'): 4.9 ± 0.25 s; average latency, Tail Flick ([4]; compound 1 mg/kg iv + stress, 15'): 3.4 ± 0.16 s; average latency, Tail Flick ([4]; compound 3 mg/kg iv + stress, 5'): 6.56 ± 0.33 s; average latency, Tail Flick ([4]; compound 3 mg/kg iv + stress, 10'): 5.58 ± 0.31 s; average latency, Tail Flick ([4]; compound 3 mg/kg iv + stress, 15'): 3.98 ± 0.32 s
5 | CCCCc1ccc(C(=O)NC(CCC(=O)O)C(=O)N(CCC)CCC)cc1 (stereo not shown) [Compound C-37] | 27.6 ± 13% | 45.8 ± 18% | 55.0 ± 16% | 51.1% | 23.4 ± 21% | 12.4 ± 13% | 35.9 ± 17% | 1.20 |  | 160 mg/kg | 
6 | CCCc1ccc(C(=O)NC(CCC(=O)O)C(=O)N(CCC)CCC)cc1 (stereo not shown) [Compound C-35] | 39.9 ± 15% | 62.3 ± 23% | 13.7% | 63.2 ± 17% | 61.3 ± 20% | 28.8 ± 31% | 44.9 ± 21% | 1.51 | 367.1 µg/mL | 181 mg/kg | % increase in biliary flow with respect to controls (biliary flow; 12.5 mg/kg i.v.): +9.6%; % increase in biliary flow with respect to controls (biliary flow; 25 mg/kg i.v.): +51.9%; % increase in biliary flow with respect to controls (biliary flow; 50 mg/kg i.v.): +91.9%; % increase in biliary flow with respect to controls (biliary flow; 100 mg/kg i.v.): +159.7%; ED50 (biliary flow; Rattus norvegicus, iv, average over 2 hours, read-out: ED50 (dose causing 50% increase in biliary flow)): 29.5 mg/kg
7 | CCCN(CCC)C(=O)C(CCC(=O)O)NC(=O)c1cccc(C)c1 (stereo not shown) [Compound C-28] | 15.7 ± 10% | 66.8 ± 18% | 68.3 ± 20% | 68.4 ± 17% | 74.5 ± 11% | 27.5 ± 15% | 53.5 ± 25% | 1.80 | > 300 µg/mL | 91.8 mg/kg | 
8 | CCCc1ccc(C(=O)NC(CCC(=O)O)C(=O)N(CC)CC)cc1 (stereo not shown) [Compound C-41] | 32.1 ± 18% | 60.0 ± 22% | 40.0 ± 17% | 46.7 ± 23% | 11.5% | 7.4 ± 20% | 32.9 ± 20% | 1.10 |  | 182 mg/kg | 
9 | CCCCCCNC(=O)C(CCC(=O)O)NC(=O)c1ccc(C)c(C)c1 (stereo not shown) [Compound C-46] | 14.7 ± 9% | 60.0 ± 18% | 28.0 ± 5% | 55.2 ± 20% | 30.2 ± 17% | 12.2 ± 11% | 32.9 ± 21% | 1.10 |  | 66.9 mg/kg | 
10 | CCCCN(CCCC)C(=O)CCC(NC(=O)c1cccc(C#N)c1)C(=O)O [Compound D-5] | 72.2% | 92.5 ± 7.0% | 95.3 ± 5.0% | 96.0 ± 4.0% | 74.3 ± 11.0% | 75.5% | 84.3 ± 11.4% | 2.83 | > 200 µg/mL | 74.9 mg/kg | 
